Test results taken from the NIST ThermoML archive (doi:10.1021/acs.jced.8b00854).

What was measured:
[1] = xn = mol fraction of the nth substance listed; details: 100 kPa, Liquid, Vibrating tube method
[2] = refractive index (Na D-line) (dimensionless); xn = mol fraction of the nth substance listed; details: 100 kPa, Liquid, Standard Abbe refractometry

CCCCCCCCOS(=O)(=O)[O-].CCCCn1cc[n+](C)c1 [1-butyl-3-methylimidazolium octyl sulfate] + O
Details | mass density, [1] [kg/m3] | refractive index, [2]
293.15 K, x1 = 0.1002 | 1048.11 | 1.4235
293.15 K, x1 = 0.2002 | 1060.01 | 1.4455
293.15 K, x1 = 0.3004 | 1063.92 | 1.4555
293.15 K, x1 = 0.4004 | 1065.86 | 1.461
293.15 K, x1 = 0.501 | 1066.97 | 1.464
293.15 K, x1 = 0.5998 | 1067.84 | 1.467
293.15 K, x1 = 0.6988 | 1068.5 | 1.4685
293.15 K, x1 = 0.8 | 1069.33 | 1.47
293.15 K, x1 = 0.9018 | 1070.47 | 1.4705
303.15 K, x1 = 0.1002 | 1041.72 | 1.422
303.15 K, x1 = 0.2002 | 1052.71 | 1.4435
303.15 K, x1 = 0.3004 | 1057.16 | 1.453
303.15 K, x1 = 0.4004 | 1059.15 | 1.4585
303.15 K, x1 = 0.501 | 1060.3 | 1.462
303.15 K, x1 = 0.5998 | 1061.29 | 1.4645
303.15 K, x1 = 0.6988 | 1061.97 | 1.466
303.15 K, x1 = 0.8 | 1062.8 | 1.4675
303.15 K, x1 = 0.9018 | 1063.98 | 1.4685
313.15 K, x1 = 0.1002 | 1035.13 | 1.4215
313.15 K, x1 = 0.2002 | 1046.53 | 1.4415
313.15 K, x1 = 0.3004 | 1050.37 | 1.4525
313.15 K, x1 = 0.4004 | 1052.42 | 1.457
313.15 K, x1 = 0.501 | 1053.61 | 1.4595
313.15 K, x1 = 0.5998 | 1054.71 | 1.462
313.15 K, x1 = 0.6988 | 1055.42 | 1.4635
313.15 K, x1 = 0.8 | 1056.28 | 1.465
313.15 K, x1 = 0.9018 | 1057.53 | 1.466
323.15 K, x1 = 0.1002 | 1028.37 | 1.421
323.15 K, x1 = 0.2002 | 1039.57 | 1.4405
323.15 K, x1 = 0.3004 | 1043.56 | 1.45
323.15 K, x1 = 0.4004 | 1045.67 | 1.4555
323.15 K, x1 = 0.501 | 1046.92 | 1.457
323.15 K, x1 = 0.5998 | 1048.14 | 1.46
323.15 K, x1 = 0.6988 | 1048.87 | 1.461
323.15 K, x1 = 0.8 | 1049.77 | 1.462
323.15 K, x1 = 0.9018 | 1051.07 | 1.4635
333.15 K, x1 = 0.1002 | 1021.44 | 1.419
333.15 K, x1 = 0.2002 | 1032.54 | 1.44
333.15 K, x1 = 0.3004 | 1036.7 | 1.4495
333.15 K, x1 = 0.4004 | 1038.91 | 1.4535
333.15 K, x1 = 0.501 | 1040.19 | 1.4545
333.15 K, x1 = 0.5998 | 1041.4 | 1.4575
333.15 K, x1 = 0.6988 | 1042.35 | 1.4585
333.15 K, x1 = 0.8 | 1043.27 | 1.46
333.15 K, x1 = 0.9018 | 1044.63 | 1.461
343.15 K, x1 = 0.1002 | 1014.33 | 1.419
343.15 K, x1 = 0.2002 | 1025.58 | 1.4395
343.15 K, x1 = 0.3004 | 1029.67 | 1.4465
343.15 K, x1 = 0.4004 | 1032.07 | 1.452
343.15 K, x1 = 0.501 | 1033.23 | 1.453
343.15 K, x1 = 0.5998 | 1034.54 | 1.4565
343.15 K, x1 = 0.6988 | 1035.66 | 1.457
343.15 K, x1 = 0.8 | 1036.82 | 1.458
343.15 K, x1 = 0.9018 | 1038.23 | 1.459

CCCCn1cc[n+](C)c1.F[B-](F)(F)F [1-butyl-3-methylimidazolium tetrafluoroborate] + O
Details | mass density, [1] [kg/m3] | refractive index, [2]
293.15 K, x1 = 0.0994 | 1106.69 | 1.383
293.15 K, x1 = 0.2005 | 1143.19 | 1.397
293.15 K, x1 = 0.3003 | 1161.69 | 1.406
293.15 K, x1 = 0.4003 | 1173.6 | 1.411
293.15 K, x1 = 0.5006 | 1182.13 | 1.414
293.15 K, x1 = 0.6004 | 1188.42 | 1.4165
293.15 K, x1 = 0.7008 | 1193.17 | 1.418
293.15 K, x1 = 0.8006 | 1196.75 | 1.42
293.15 K, x1 = 0.899 | 1199.6 | 1.4215
303.15 K, x1 = 0.0994 | 1100.29 | 1.379
303.15 K, x1 = 0.2005 | 1135.92 | 1.395
303.15 K, x1 = 0.3003 | 1154.24 | 1.403
303.15 K, x1 = 0.4003 | 1166.15 | 1.409
303.15 K, x1 = 0.5006 | 1174.73 | 1.4125
303.15 K, x1 = 0.6004 | 1181.09 | 1.415
303.15 K, x1 = 0.7008 | 1185.92 | 1.4165
303.15 K, x1 = 0.8006 | 1189.58 | 1.418
303.15 K, x1 = 0.899 | 1192.49 | 1.4195
313.15 K, x1 = 0.0994 | 1093.06 | 1.3765
313.15 K, x1 = 0.2005 | 1128.35 | 1.394
313.15 K, x1 = 0.3003 | 1146.77 | 1.4015
313.15 K, x1 = 0.4003 | 1158.78 | 1.4075
313.15 K, x1 = 0.5006 | 1167.43 | 1.41
313.15 K, x1 = 0.6004 | 1173.85 | 1.4125
313.15 K, x1 = 0.7008 | 1178.71 | 1.414
313.15 K, x1 = 0.8006 | 1182.39 | 1.416
313.15 K, x1 = 0.899 | 1185.31 | 1.4175
323.15 K, x1 = 0.0994 | 1085.97 | 1.376
323.15 K, x1 = 0.2005 | 1120.89 | 1.393
323.15 K, x1 = 0.3003 | 1139.33 | 1.4015
323.15 K, x1 = 0.4003 | 1151.42 | 1.4055
323.15 K, x1 = 0.5006 | 1160.15 | 1.4075
323.15 K, x1 = 0.6004 | 1166.65 | 1.4105
323.15 K, x1 = 0.7008 | 1171.59 | 1.4125
323.15 K, x1 = 0.8006 | 1175.31 | 1.414
323.15 K, x1 = 0.899 | 1178.26 | 1.415
333.15 K, x1 = 0.0994 | 1079.15 | 1.3755
333.15 K, x1 = 0.2005 | 1113.47 | 1.39
333.15 K, x1 = 0.3003 | 1131.87 | 1.401
333.15 K, x1 = 0.4003 | 1144.01 | 1.405
333.15 K, x1 = 0.5006 | 1152.8 | 1.4075
333.15 K, x1 = 0.6004 | 1159.37 | 1.4095
333.15 K, x1 = 0.7008 | 1164.36 | 1.411
333.15 K, x1 = 0.8006 | 1168.12 | 1.4125
333.15 K, x1 = 0.899 | 1171.04 | 1.4135
343.15 K, x1 = 0.0994 | 1072.21 | 1.3755
343.15 K, x1 = 0.2005 | 1106.02 | 1.39
343.15 K, x1 = 0.3003 | 1124.41 | 1.401
343.15 K, x1 = 0.4003 | 1136.62 | 1.4045
343.15 K, x1 = 0.5006 | 1145.48 | 1.407
343.15 K, x1 = 0.6004 | 1152.11 | 1.407
343.15 K, x1 = 0.7008 | 1157.17 | 1.4085
343.15 K, x1 = 0.8006 | 1161 | 1.409
343.15 K, x1 = 0.899 | 1164.1 | 1.411
